Reference: the NIST ThermoML archive (doi:10.1021/je7001623)
Numbers after ± are expanded uncertainties.

Conditions: 101.33 kPa, Liquid; for mass density: Vibrating tube method; for viscosity: surface light scattering

CC(C)CCCCCCCOC(=O)c1ccccc1C(=O)OCCCCCCCC(C)C
mass density (273.14 K): 980.74 ± 0.4 kg/m3
mass density (278.15 K): 977.13 ± 0.39 kg/m3
mass density (283.15 K): 973.51 ± 0.39 kg/m3
viscosity (283.15 K): 265.6 ± 8.2 mPa·s
mass density (288.15 K): 969.94 ± 0.39 kg/m3
viscosity (288.15 K): 177.4 ± 5.7 mPa·s
mass density (293.15 K): 966.43 ± 0.39 kg/m3
viscosity (293.15 K): 123.8 ± 3.9 mPa·s
viscosity (298.15 K): 88.44 ± 2.7 mPa·s
mass density (298.16 K): 962.9 ± 0.39 kg/m3
viscosity (303.15 K): 64.84 ± 2 mPa·s
mass density (303.16 K): 959.36 ± 0.39 kg/m3
viscosity (308.15 K): 48.98 ± 1.5 mPa·s
mass density (308.16 K): 955.81 ± 0.39 kg/m3
viscosity (313.15 K): 38.01 ± 1.1 mPa·s
mass density (313.16 K): 952.27 ± 0.39 kg/m3
mass density (318.16 K): 948.73 ± 0.38 kg/m3
mass density (323.16 K): 945.19 ± 0.38 kg/m3
mass density (328.16 K): 941.65 ± 0.38 kg/m3
mass density (333.16 K): 938.12 ± 0.38 kg/m3
mass density (338.16 K): 934.6 ± 0.38 kg/m3
mass density (348.15 K): 927.54 ± 0.38 kg/m3
mass density (353.15 K): 924.02 ± 0.38 kg/m3
mass density (358.15 K): 920.5 ± 0.38 kg/m3
mass density (363.15 K): 916.95 ± 0.37 kg/m3
